Series [1] in a line: physchem. Particulars: fasted state simulated intestinal fluid.
Series [2] addresses Heat shock protein HSP 90-alpha (Homo sapiens, UniProt P07900).
Description: Binding affinity to N-terminus biotinylated human Hsp90 alpha by surface plasmon resonance assay
Series [3] is described as follows: in vitro. Particulars: mouse, liver microsomes.
A short description of series [4]: in vitro. Particulars: human, liver microsomes.
A short description of series [5]: Half life in athymic nu/nu mouse at 10 mg/kg, iv. Further details: dose 10 mg/kg, route intravenous. The format is ADME, organism-based. Particulars: in vivo.
Series [6] in a line: Tmax in athymic nu/nu mouse at 200 mg/kg, po. Format: ADME, organism-based. Further details: dose 200 mg/kg, route oral. Particulars: in vivo.

Converted amounts (≈) assume the structure as drawn.

In series [1], `Cc1cc(C)c2cc1C(=O)NCCCCCOc1cccc(c1)Sc1cc-2nc(N)n1` returned a solubility of 39 µM (≈ 16.9 µg/mL).
In series [1], `COc1cc(C)c2cc1C(=O)NCCCOc1cccc(c1)Sc1cc-2nc(N)n1` displayed a solubility of 260 µM (≈ 110 µg/mL). In series [2], this molecule showed a Kd of 5.8 nM.
Take `Cc1cc(C)c2cc1C(=O)NCCCC(=O)NCCSc1cc-2nc(N)n1`: the solubility in series [1] is 117 µM (≈ 45.1 µg/mL). For the same molecule, the microsomal CLint at 1 h, 5 µM stood at 15 µL/min/mg in series [3] and 1 µL/min/mg in series [4]. Besides, the affinity in series [2], expressed as Kd, was 0.65 nM.
In series [1], `Cc1cc(C)c2cc1C(=O)NCCCCCNC(=O)CCSc1cc-2nc(N)n1` displayed a solubility of 169 µM (≈ 69.9 µg/mL). In addition, the intrinsic clearance (microsomal CLint) at 1 h, 5 µM came to 1.8 µL/min/mg in series [3] and 1.7 µL/min/mg in series [4].
In the case of `Cc1cc(C)c2cc1C(=O)NCCOC(=O)NCCSc1cc-2nc(N)n1`, the solubility in series [1] was 911 µM (≈ 353 µg/mL). Besides, the intrinsic clearance (microsomal CLint) at 1 h, 5 µM in series [3] amounted to 7.3 µL/min/mg; in series [4] it was 3.5 µL/min/mg. The molecule also showed a dissociation constant (Kd) in series [2] of 0.7 nM.
On to `Cc1cc(C)c2cc1C(=O)NCCCCOc1cccc(c1)Sc1cc-2nc(N)n1`, for which, in series [1], the concentration in solution (solubility) was 69 µM (≈ 29 µg/mL).
`CSc1nc(N)nc(-c2ccc3c4c(cc(Cl)cc24)COC3)n1` showed a half-life in series [5] of 15 min. In series [1], this molecule yielded a solubility of 29 µM (≈ 10 µg/mL). For the same molecule, the intrinsic clearance (microsomal CLint) at 1 h, 5 µM in series [3] came out at 60 µL/min/mg; in series [4], 43 µL/min/mg. For the same molecule, the dissociation constant Kd in series [2] came to 3.4 nM. Moreover, the Tmax in series [6] came to 30 min.
As for `Cc1cc(C)c2cc1C(=O)NCCNC(=O)CCCSc1cc-2nc(N)n1`, the solubility in series [1] is 106 µM (≈ 40.9 µg/mL). Besides, the figures for the intrinsic metabolic clearance (microsomal CLint) at 1 h, 5 µM in series [3] and in series [4] were 3.6 µL/min/mg and 5.4 µL/min/mg, respectively. This molecule returned an equilibrium dissociation constant (Kd) in series [2] of 0.61 nM.
Take `CCOc1cc(C)c2cc1C(=O)NCCCOc1cccc(c1)Sc1cc-2nc(N)n1`: the concentration in solution in series [1] (solubility) came to 186 µM (≈ 81.2 µg/mL). Moreover, the affinity in series [2], expressed as Kd, was 10 nM.
For the molecule `Cc1ccc2cc1-c1cc(nc(N)n1)Sc1cccc(c1)OCCCO2`, in series [2], the Kd turned out to be 120 nM.
In turn, `Cc1cc(C)c2cc1C(=O)NCCCCNC(=O)CCSc1cc-2nc(N)n1` showed a solubility in series [1] of 553 µM (≈ 221 µg/mL). Besides, the values for the microsomal CLint at 1 h, 5 µM in series [3] and in series [4] were 3.5 µL/min/mg and 5.1 µL/min/mg, respectively.
Consider `Nc1nc2cc(n1)-c1cc(c(Cl)cc1Cl)OCCCCOc1cccc(c1)S2`, for which the solubility in series [1] is less than 7 µM. For the same molecule, the Kd in series [2] turned out to be 11 nM.
Turning to `Cc1cc(C)c2cc1C(=O)NCCNC(=O)OCCSc1cc-2nc(N)n1`, in series [1], the solubility was 111 µM (≈ 43 µg/mL). The figures for the microsomal CLint at 1 h, 5 µM in series [3] and in series [4] were 21 µL/min/mg and 9.3 µL/min/mg, respectively. The same molecule came in with a Kd in series [2] of 0.8 nM.

The values are drawn from ChEMBL document CHEMBL1938253, “Design and synthesis of novel macrocyclic 2-amino-6-arylpyrimidine Hsp90 inhibitors” (Bioorg Med Chem Lett, 2012).
